PubChem BioAssay (NCI)
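Each compound was tested at five concentrations against cells in 96-well plates for 48 hours. The concentration for 50% growth inhibition is given as GI50. TGI marks complete inhibition of growth.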

Experiments:
Assay in all cases: growth of human tumour cells (NCI), 48 h
[1] = test system: SF-539 CNS
[2] = test system: SK-MEL-2 melanoma
[3] = test system: SF-268 CNS
[4] = test system: SN12C renal
[5] = test system: HOP-62 NSCLC
[6] = test system: RPMI-8226 leukemia
[7] = test system: HOP-92 NSCLC
[8] = test system: UACC-62 melanoma
[9] = test system: T-47D breast
[10] = test system: PC-3 prostate

SMILES	TGI [1]	TGI [2]	TGI [3]	TGI [4]	TGI [5]	TGI [6]	TGI [7]	TGI [8]	TGI [9]	GI50 [8]	GI50 [9]	GI50 [1]	GI50 [2]	GI50 [3]	GI50 [4]	GI50 [5]	GI50 [10]	TGI [10]	GI50 [7]	GI50 [6]
CCOc1ccc(NC(=O)C2=C(C)NC(C)=C(C(=O)Nc3ccc(OCC)cc3)C2c2ccc([N+](=O)[O-])cc2)cc1	> 100 µM	45.7 µM	> 100 µM	> 100 µM	> 100 µM	64.2 µM	58.6 µM													
O=C(/C=N/O)c1c(-c2ccccc2)[nH]c(-c2ccccc2)c1-c1ccccc1	26.9 µM	24 µM	49.7 µM	35.2 µM	> 100 µM	31.4 µM	67.1 µM	28.7 µM	> 100 µM											
O=C(CC1C(=O)Nc2ccccc2S1=O)Nc1cccc(Cl)c1 (stereo not drawn)	43.7 µM	> 100 µM	> 100 µM	> 100 µM	> 77.6 µM	> 31 µM	53.8 µM	> 76.1 µM	42.7 µM											
Cc1ccc(/C=C2\CCOC2=O)cc1	> 100 µM	> 100 µM	> 100 µM	> 100 µM	> 100 µM		> 100 µM	> 100 µM	> 100 µM	> 100 µM	> 100 µM	> 100 µM	> 100 µM	60.2 µM	> 100 µM	> 100 µM	> 100 µM	> 100 µM	> 100 µM	
O=C1C(c2ccccc2)=C(c2ccccc2)C(c2ccccc2)/C1=C1\C(=O)C(c2ccccc2)=C(c2ccccc2)C1c1ccccc1 (stereo not drawn)	> 100 µM	> 100 µM	> 100 µM	> 100 µM	> 100 µM	> 100 µM	> 100 µM	> 100 µM												
COC(=O)c1c(-c2ccccc2)csc1NC(=O)c1c(-c2ccccc2)noc1C	> 100 µM	> 100 µM	> 100 µM	> 100 µM	> 100 µM	> 100 µM		> 100 µM	> 100 µM	0.78 µM	3.41 µM	0.655 µM		0.89 µM	4.06 µM	4.56 µM	1.28 µM	> 100 µM		0.793 µM
COc1ccc(-n2c(N)c(C(=O)NCCN3CCOCC3)c3nc4ccccc4nc32)cc1OC	> 100 µM	42.8 µM	> 100 µM	> 100 µM		> 100 µM	> 100 µM	> 100 µM	> 100 µM	9.82 µM	25 µM	7.8 µM	2.94 µM	5.39 µM	5.29 µM		11.7 µM	87.3 µM	20.3 µM	3.36 µM
O=C(Nc1ccccc1Cl)c1ccc(NC2=C(Cl)C(=O)N(Cc3ccccc3)C2=O)cc1	> 100 µM		55.1 µM	73.7 µM	> 100 µM	> 100 µM		41.1 µM	> 100 µM	19.5 µM	62.4 µM	45.6 µM		23.3 µM	27.8 µM	41.2 µM	40 µM	> 100 µM		> 100 µM
CC(C)(C)c1cc(C(O)(C(F)(F)F)C(F)(F)F)c2c(c1)C(C(F)(F)F)(C(F)(F)F)OC(c1ccccc1)(C(C)(C)C)N2 (stereo not drawn)	> 100 µM	19.7 µM		16.6 µM		12.1 µM		14.6 µM												
O=C(/C=C/c1ccccc1F)C(c1ccccc1)c1ccccc1	5.48 µM	6.15 µM	11.3 µM	15.2 µM		> 100 µM	8.72 µM	4.56 µM												
O=C(NC(=S)NS(=O)(=O)c1ccc(N2N=C3c4ccccc4CC3C2c2cccs2)cc1)c1ccccc1 (stereo not drawn)	84.6 µM	> 100 µM	> 100 µM	96.9 µM		> 100 µM	> 100 µM	36.8 µM	> 100 µM	14.6 µM	69.6 µM	27.9 µM	44 µM	> 100 µM	26 µM		29.7 µM	> 100 µM	53.1 µM	29.7 µM
CC(=O)O[C@H]1CC[C@@]2(C)C(=CC[C@@H]3C2CC[C@]2(C)Nc4oncc4CC32)C1 (stereo partly drawn)	> 100 µM	> 100 µM			> 100 µM	43.8 µM		99 µM												
O=C(OCCOCCOC(=O)c1c[nH]cc1-c1ccccc1)c1c[nH]cc1-c1ccccc1	32.5 µM		40 µM	42.1 µM	31.7 µM	56.9 µM	47.8 µM	31 µM												
CN(C)/[N+]([O-])=N/Oc1cc(Nc2ccc(C(=O)O)cc2)c([N+](=O)[O-])cc1[N+](=O)[O-]	53.6 µM	39 µM	40.1 µM	33.6 µM	35 µM	> 100 µM		32.2 µM		17.9 µM		23.5 µM	17.1 µM	20.4 µM	18.6 µM	18 µM	26.5 µM	53.1 µM		23.6 µM
Cc1ccc(S(=O)(=O)N2CCCCC2CCO)cc1 (stereo not drawn)	> 100 µM	> 100 µM	> 100 µM	> 100 µM	> 100 µM	> 100 µM	> 100 µM	> 100 µM												
C[Si](C)(C)/C(Br)=C\CCN1C(=O)CCC1O (stereo not drawn)	> 100 µM	> 100 µM	> 100 µM	> 100 µM		> 100 µM	> 100 µM	> 100 µM												
Cc1cc2c(=O)cc(-c3ccc(Cl)cc3)oc2c(C(=O)O)c1C	> 100 µM	> 100 µM	> 100 µM	> 100 µM		> 100 µM		> 100 µM												
Cn1cccc1-c1cc(-c2ccc(Br)cc2)nc(N)c1C#N	> 100 µM	> 100 µM	> 100 µM	> 100 µM		> 100 µM	> 100 µM	> 100 µM	> 100 µM	33.3 µM	> 100 µM	> 100 µM	> 100 µM	> 100 µM	> 100 µM		> 100 µM	> 100 µM	47.8 µM	78.7 µM
CC(=O)Nc1ccc(C(=O)N[C@@H]2C(=O)N3[C@@H]2SC(C)(C)[C@@H]3C(=O)O)cn1		> 100 µM	> 100 µM	> 100 µM	> 100 µM	> 100 µM	> 100 µM	> 100 µM	> 100 µM									> 100 µM		
